Measurements: ChEMBL document CHEMBL4699525, “Design and synthesis of new indanol-1,2,3-triazole derivatives as potent antitubercular and antimicrobial agents” (Bioorg Med Chem Lett, 2020)
In brackets after ≈: the same amount, converted by molar mass. Activity calls are given as the source filed them. The calls are words filed in the database; no cut-off is given here.

Assays:
Salmonella typhi = experiment: Antibacterial activity against Salmonella typhi assessed as inhibition of bacterial growth incubated for 24 hrs by agar well diffusion method; format: functional
Klebsiella aerogenes [1] = experiment: Antibacterial activity against Enterobacter aerogenes assessed as inhibition of bacterial growth incubated for 24 hrs by agar well diffusion method; format: functional
[2] = molecular target: T1, Enoyl-[acyl-carrier-protein] reductase [NADH] (Mycobacterium tuberculosis) (UniProt P9WGR1); experiment: Inhibition of InhA in Mycobacterium tuberculosis H37Rv assessed antitubercular activity by measuring inhibition of bacterial growth incubated for 7 days by MABA assay; conditions: time 7.0 day
T1 sequence (whole entry): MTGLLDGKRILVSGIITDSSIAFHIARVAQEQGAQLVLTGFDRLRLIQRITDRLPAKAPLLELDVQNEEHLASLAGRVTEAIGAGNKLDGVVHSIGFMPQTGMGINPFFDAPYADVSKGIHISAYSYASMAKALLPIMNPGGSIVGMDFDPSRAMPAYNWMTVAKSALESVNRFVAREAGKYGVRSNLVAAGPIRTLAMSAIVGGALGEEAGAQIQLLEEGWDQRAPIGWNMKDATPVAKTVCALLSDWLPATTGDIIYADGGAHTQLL

Shigella boydii [3] = experiment: Antibacterial activity against Shigella boydii assessed as inhibition of bacterial growth incubated for 24 hrs by agar well diffusion method; format: functional
Saccharomyces cerevisiae [4] = experiment: Antifungal activity against Saccharomyces cerevisiae assessed as inhibition of fungal growth incubated for 24 hrs by agar well diffusion method; format: functional
Aspergillus niger [5] = experiment: Antifungal activity against Aspergillus niger assessed as inhibition of fungal growth incubated for 24 hrs by agar well diffusion method; format: functional
Pseudomonas aeruginosa = experiment: Antibacterial activity against Pseudomonas aeruginosa assessed as inhibition of bacterial growth incubated for 24 hrs by agar well diffusion method; format: functional
Bacillus subtilis = experiment: Antibacterial activity against Bacillus subtilis assessed as inhibition of bacterial growth incubated for 24 hrs by agar well diffusion method; format: functional
Candida albicans [6] = experiment: Antifungal activity against Candida albicans assessed as inhibition of fungal growth incubated for 24 hrs by agar well diffusion method; format: functional
Bacillus cereus = experiment: Antibacterial activity against Bacillus cereus assessed as inhibition of bacterial growth incubated for 24 hrs by agar well diffusion method; format: functional
Staphylococcus aureus [7] = experiment: Antibacterial activity against Staphylococcus aureus assessed as inhibition of bacterial growth incubated for 24 hrs by agar well diffusion method; format: functional
[8] = Cytotoxicity against human HEK293 cells assessed as inhibition of cell growth at 25 uM incubated for 48 hrs by MTT assay; format: cell-based
[9] = test system: Salmonella enterica subsp. enterica serovar Abony; experiment: Antibacterial activity against Salmonella abony assessed as inhibition of bacterial growth incubated for 24 hrs by agar well diffusion method; format: functional
Escherichia coli = experiment: Antibacterial activity against Escherichia coli assessed as inhibition of bacterial growth incubated for 24 hrs by agar well diffusion method; format: functional
Staphylococcus aureus [10] = experiment: Antibacterial activity against Staphylococcus aureus assessed as inhibition of bacterial growth incubated for overnight by CLSI based method; format: functional
Candida albicans [11] = experiment: Antifungal activity against Candida albicans assessed as inhibition of […] growth incubated for overnight by CLSI based method; format: functional
Klebsiella aerogenes [12] = experiment: Antibacterial activity against Enterobacter aerogenes assessed as inhibition of bacterial growth incubated for overnight by CLSI based method; format: functional
Saccharomyces cerevisiae [13] = experiment: Antifungal activity against Saccharomyces cerevisiae assessed as inhibition of […] growth incubated for overnight by CLSI based method; format: functional
Aspergillus niger [14] = experiment: Antifungal activity against Aspergillus niger assessed as inhibition of […] growth incubated for overnight by CLSI based method; format: functional
Shigella boydii [15] = experiment: Antibacterial activity against Shigella boydii assessed as inhibition of bacterial growth incubated for overnight by CLSI based method; format: functional
[16] = Salmonella enterica subsp. enterica serovar Typhi

Structure (SMILES)	diameter of the inhibition zone (DIZ) (Salmonella typhi; [16])	diameter of the inhibition zone (DIZ) (Klebsiella aerogenes [1])	MIC [2] [µM]	diameter of the inhibition zone (DIZ) (Shigella boydii [3])	diameter of the inhibition zone (DIZ) (Saccharomyces cerevisiae [4])	diameter of the inhibition zone (DIZ) (Aspergillus niger [5])	diameter of the inhibition zone (DIZ) (Pseudomonas aeruginosa)	diameter of the inhibition zone (DIZ) (Bacillus subtilis)	diameter of the inhibition zone (DIZ) (Candida albicans [6])	diameter of the inhibition zone (DIZ) (Bacillus cereus)	diameter of the inhibition zone (DIZ) (Staphylococcus aureus [7])	inhibition at 48 h, 25 µM [8] [%]	diameter of the inhibition zone (DIZ) [9]	diameter of the inhibition zone (DIZ) (Escherichia coli)	diameter of the inhibition zone (DIZ) (Salmonella typhi) [mm]	MIC (Staphylococcus aureus [10]) [µg/mL]	MIC (Candida albicans [11]) [µg/mL]	MIC (Klebsiella aerogenes [12]) [µg/mL]	MIC (Saccharomyces cerevisiae [13]) [µg/mL]	MIC (Aspergillus niger [14]) [µg/mL]	further results
Fc1ccccc1-n1cc(COc2ccc3c(c2)CCC3)nn1	inactive	inactive	6.25 (≈ 1.93 µg/mL)	inactive	10 mm	inactive	inactive	inactive	9 mm	inactive	15 mm	21	inactive	inactive	–	–	–	–	–	–	–
O=C(Cn1cc(COc2ccc3c(c2)CCC3)nn1)Nc1cccc([N+](=O)[O-])c1	–	10 mm	> 25	10 mm	9 mm	5 mm	6 mm	11 mm	10 mm	12 mm	10 mm	–	10 mm	10 mm	10	140 (≈ 356 µM)	150 (≈ 381 µM)	145 (≈ 369 µM)	135 (≈ 343 µM)	220 (≈ 559 µM)	MIC (Shigella boydii [15]): 140 µg/mL (≈ 356 µM)
Cc1cc(C)c(-n2cc(COc3ccc4c(c3)CCC4)nn2)c(C)c1	inactive	inactive	6.25 (≈ 2.08 µg/mL)	inactive	inactive	inactive	inactive	inactive	inactive	inactive	inactive	16.6	inactive	inactive	–	–	–	–	–	–	–
COc1cccc(-n2cc(COc3ccc4c(c3)CCC4)nn2)c1	–	inactive	12.5 (≈ 4.02 µg/mL)	13 mm	inactive	–	9 mm	inactive	12 mm	inactive	12 mm	25.8	11 mm	10 mm	–	–	–	–	–	–	–
COc1ccccc1-n1cc(COc2ccc3c(c2)CCC3)nn1	inactive	inactive	12.5 (≈ 4.02 µg/mL)	inactive	inactive	inactive	inactive	inactive	10 mm	inactive	10 mm	19.8	inactive	inactive	–	–	–	–	–	–	–
O=C(Cn1cc(COc2ccc3c(c2)CCC3)nn1)Nc1ccccc1	–	16 mm	> 25	11 mm	12 mm	9 mm	10 mm	12 mm	13 mm	12 mm	23 mm	–	11 mm	11 mm	12	140 (≈ 402 µM)	85 (≈ 244 µM)	80 (≈ 230 µM)	110 (≈ 316 µM)	170 (≈ 488 µM)	MIC (Shigella boydii [15]): 130 µg/mL (≈ 373 µM)
